What was measured:
hyperlipemia [1] = assay: Anti-hyperlipemia test in rats on high fat food (Experimental Example 1); type: in vivo, Male Wistar rats; conditions: peroral once a day, two weeks, control 100, Table 1
Source text: Male Wistar rats 6.5 weeks old were allowed to freely intake a high fat food (containing 1% of cholesterol, 0.5% of sodium cholate, 12% of beef tallow and 20% of standard chow) in the cource of two weeks, to thus cause an outbreak of hyperlipemia. The dose of the drug was started simultaneously with the application of the high fat food, and was perorally given once a day through a stomach tube until the end of the experiment. The drugs were all suspended in a cane sugar fatty acid ester and were administered. The oily compounds were adjusted in advance to 100 mg/m.iota. by diethyl ether. A suitable amount was collected at the time of the dose and after diethyl ether was evaporated and removed, it was suspended in a cane sugar fatty acid ester (1% ryoto sugar ester) and then given. After the final dose of the drug, the rats were fasted for about 18 hours, and the blood was sampled to measure the blood serum lipid. The blood serum lipid was measured by using a TBA-380 biochemical analyzer (a product of Toshiba Medical Co.,) unless a particular hindrance occurred.

bile secretion = assay: Cholagogic action, bile secretion (Experimental Example 5); type: in vivo, male Wistar rats; conditions: intraduodenal
Description: After male Wistar rats 7 weeks old were fasted for 24 hours, they were anesthetized by the interperitoneal administration of 1.25 g/kg (volume 2 m.iota./kg) of urethane. A polyethylene canula (SP-10, a product of Natsume Seisakusho) was inserted into a bile duct and after the bile was caused to flow out for 30 minutes, the bile was collected in the cource of 1 hour. Thereafter, each test drug was suspended or dissolved in a 1% aqueous Tween-80 solution, and was administered into the duodenum at a rate of 5 m.iota./kg. Furthermore, the bile was collected every hour in the course of five hours, and its weight was measured. Only a 1% Tween-80 solution was given as a control.
The results are tabulated in Tables 6, 7, 8, 9 and 10, wherein the bile secretion amount every hour was represented by a percentage with the bile secretion amount (mg) one hour before the dose of the test drug being 100.

hyperlipemia [2] = assay: Anti-hyperlipemia test in rats on high fat food (Experimental Example 4); type: in vivo, Male Wistar rats; conditions: peroral once a day, two weeks, control 100, Table 5
Source text: Male Wistar rats 6.5 weeks old were allowed to freely intake a high fat food (0.5% cholesterol, 1.0% cholic acid, 20.0% casein, 50.5% cane sugar, 12.0% hardened coconut oil, 4.0% cellulose, 4.0% mineral mixture, 0.5% vitamine mixture, 7.5% white fish meal) in the course of two weeks so as to cause the outbreak of hyperlipemia. The dose of the drug was started simultaneously with the application of the high fat food, and was perorally given once a day through a stomach tube until the end of the experiment. The drugs were all suspended in a cane sugar fatty acid ester and were administered. The oily compounds were adjusted in advance to 100 mg/m.iota. by diethyl ether. A suitable amount was collected at the time of the dose and after diethyl ether was evaporated and removed, it was suspended in a cane sugar fatty acid ester (1% ryoto sugar ester) and was then given. After the final dose of the drug, the rats were fasted for about 18 hours, and the blood was sampled to measure the blood serum lipid. The blood serum lipid was measured by using a TBA-380 bio-chemical analyzer (a product of Toshiba Medical Co.,) unless a particular hindrance occurred.

Acute toxicity test = conditions: mouse, in vivo, ip; male S.P.P. mice, abdominally administered; Table 11
Description: The acute toxicity test was carried out by abdominally administering each test drug to male S.P.P. mice and determining an LD50 value.

[3] = tested on: cholesterol synthesis in liver slices; assay: Cholesterol synthesis from [1-14C] acetic acid in liver slices (Experimental Example 2); type: cell-based, male Wistar rats; conditions: drug final concentration 0.1-1.0 mM, 37° C., 120 minutes; control 100; Table 2
Description: Liver slices (0.5 mm) were prepared from male Wistar rats 5 weeks old acclimated for 10 days in a bright/dark inversion raising chamber (bright period: 8:00 p.m.-8:00 a.m.). […] Incubation was carried out at 37° C. for 120 minutes in 95% oxygen and 5% carbon dioxide. The reaction was stopped by adding 1 m.iota. of 15% potassium hydroxide/ethanol, and saponification was carried out at 80° C. for 2 hours. The sterol fraction was extracted by petroleum ether and was evaporated to driness. Thereafter, 1 m.iota. of acetone/ethanol (1:1) and 1 m.iota. of 0.5% digitonine were added, and the mixture was left standing for a night at room temperature. The precipitate was collected by centrifugal separation and was washed with 2 m.iota. of acetone/ether (1:1). The precipitate was further centrifuged. After the supernatant was discarded, the precipitate was dissolved in methanol and its radioactivity was measured.

[4] = 0-1 hour after dose, control 84.1, Table 8
[5] = 1-2 hour after dose, control 72.5, Table 8
[6] = 2-3 hour after dose, control 63.8, Table 8
[7] = 3-4 hour after dose, control 56.7, Table 8
[8] = 4-5 hour after dose, control 51.2, Table 8
[9] = 0-1 hour after dose, control 82.9, Table 10
[10] = 1-2 hour after dose, control 74.1, Table 10
[11] = 2-3 hour after dose, control 66.1, Table 10
[12] = 3-4 hour after dose, control 59.8, Table 10
[13] = 4-5 hour after dose, control 53.3, Table 10

SMILES | Blood serum cholesterol (%) (hyperlipemia [1]; 10 mg/kg) | Blood serum triglyceride (%) (hyperlipemia [1]; 10 mg/kg) | Blood serum cholesterol (%) (hyperlipemia [1]; 30 mg/kg) | Blood serum triglyceride (%) (hyperlipemia [1]; 30 mg/kg) | Bile secretion amount, percentage of the hour before dose (bile secretion; [4]) [%] | Bile secretion amount, percentage of the hour before dose (bile secretion; [5]) [%] | Bile secretion amount, percentage of the hour before dose (bile secretion; [6]) [%] | Bile secretion amount, percentage of the hour before dose (bile secretion; [7]) [%] | Bile secretion amount, percentage of the hour before dose (bile secretion; [8]) [%] | Blood serum cholesterol (%) (hyperlipemia [2]; 10 mg/kg) | Blood serum cholesterol (%) (hyperlipemia [2]; 30 mg/kg) | LD50 (Acute toxicity test) [mg/kg] | Relative amount of synthesized cholesterol (%) [3] [%] | Bile secretion amount, percentage of the hour before dose (bile secretion; [9]) [%] | Bile secretion amount, percentage of the hour before dose (bile secretion; [10]) [%] | Bile secretion amount, percentage of the hour before dose (bile secretion; [11]) [%] | Bile secretion amount, percentage of the hour before dose (bile secretion; [12]) [%] | Bile secretion amount, percentage of the hour before dose (bile secretion; [13]) [%] | further results
COC(=O)C1=COC(O)[C@H]2[C@@H]1CC[C@@H]2C (stereo partly drawn) [Definite Example 4, methyl (4aS, 7S, 7aR)-1,4a, 5,6,7,7a-hexahydro-1-hydroxy-7-methylcyclopenta[c]pyran-4-carboxylate] | 73.3 | 86.0 | 75.4 | 91.0 | 150.8 | 93.7 | 74.0 | 63.9 | 57.2 | 85.3 | 75.0 | – | – | – | – | – | – | – | Bile secretion amount, percentage of the hour before dose (bile secretion; 0-1 hour after dose, control 82.9, Table 6): 146.9%; Bile secretion amount, percentage of the hour before dose (bile secretion; 1-2 hour after dose, control 74.1, Table 6): 97.8%; Bile secretion amount, percentage of the hour before dose (bile secretion; 2-3 hour after dose, control 66.1, Table 6): 85.4%; Bile secretion amount, percentage of the hour before dose (bile secretion; 3-4 hour after dose, control 59.8, Table 6): 77.2%; Bile secretion amount, percentage of the hour before dose (bile secretion; 4-5 hour after dose, control 53.3, Table 6): 71.8%
COC(=O)C1=COC(O)[C@@H]2C(C)=CC[C@H]12 (stereo partly drawn) [Definite Example 9, methyl (4aS, 7aS)-1,4a, 5,7a-tetrahydro-1-hydroxy-7-methylcyclopenta[c]pyran-4-carboxylate] | 93.6 | 74.5 | 59.3 | 60.0 | 134.5 | 90.9 | 76.5 | 66.7 | 59.4 | 70.8 | 62.8 | 407 | – | – | – | – | – | – | –
CC(=O)O[C@@H]1OC=C(CO)[C@H]2CC=C(CO)[C@@H]12 [Definite Example 27, (1S, 4aS, 7aS)-1-acetoxy-4,7-bis(hydroxymethyl)-1,4a, 5,7a-tetrahydrocyclopenta[c]pyran] | – | – | – | – | – | – | – | – | – | – | – | 473 | 73.5 | 98.3 | 75.3 | 59.0 | 48.7 | 43.5 | –
COC(=O)C1=CO[C@@H](OC(C)=O)[C@H]2[C@@H]1CC1OCC12OC(C)=O (stereo partly drawn) [Definite Example 30, methyl (iS, 4aS, 7aS)-1,7-diacetoxy-6,7-(epoxymethano)-1,4a, 5,6,7,7a-hexahydrocyclopenta[c]pyran-4-carboxylate] | – | – | – | – | – | – | – | – | – | – | – | 468 | 50.1 | 97.9 | 83.1 | 69.7 | 61.0 | 53.9 | –
COC(=O)C1=COC(=O)[C@@H]2[C@H](C)CC[C@H]12 [Definite Example 32, methyl (4aS, 7R, 7aR)-1,4a, 5,6,7,7a-hexahydro-7-methyl-1-oxocyclopenta[c]pyran-4-carboxylate] | – | – | – | – | – | – | – | – | – | – | – | – | 96.2 | 110.7 | 80.6 | 66.2 | 55.6 | 49.6 | –
